Test results reported in the NIST ThermoML archive (doi:10.1016/j.jct.2005.06.003).
Numbers after ± are expanded uncertainties.

Settings: Liquid, Closed cell (Static) method

| SMILES | vapor or sublimation pressure (283.15 K) | vapor or sublimation pressure (288.15 K) | vapor or sublimation pressure (293.15 K) | vapor or sublimation pressure (298.15 K) | vapor or sublimation pressure (303.15 K) | vapor or sublimation pressure (308.15 K) | vapor or sublimation pressure (313.15 K) | vapor or sublimation pressure (318.15 K) | vapor or sublimation pressure (323.15 K) |
| --- | --- | --- | --- | --- | --- | --- | --- | --- | --- |
| ClC(Cl)C(Cl)Cl [1,1,2,2-tetrachloroethane] | 0.263 ± 0.02 kPa | 0.373 ± 0.02 kPa | 0.521 ± 0.021 kPa | 0.711 ± 0.021 kPa | 0.98 ± 0.022 kPa | 1.289 ± 0.022 kPa | 1.701 ± 0.022 kPa | 2.236 ± 0.023 kPa | 2.86 ± 0.023 kPa |
| ClC(Cl)=C(Cl)Cl [tetrachloroethene] | 1.023 ± 0.022 kPa | 1.4 ± 0.022 kPa | 1.861 ± 0.022 kPa | 2.462 ± 0.023 kPa | 3.205 ± 0.023 kPa | 4.117 ± 0.024 kPa | 5.253 ± 0.025 kPa | 6.621 ± 0.027 kPa | 8.286 ± 0.028 kPa |
| C1CCOC1 [tetrahydrofuran] | 10.73 ± 0.032 kPa | 13.67 ± 0.036 kPa | 17.25 ± 0.041 kPa | 21.6 ± 0.047 kPa | 26.81 ± 0.054 kPa | 32.94 ± 0.065 kPa | 40.21 ± 0.077 kPa | 48.68 ± 0.091 kPa | 58.54 ± 0.11 kPa |
